Test results as given in ChEMBL document CHEMBL1201862, “PubChem BioAssay data set” (2004).
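1) Cells in 96-well plates. 2) Compound, 48 h, 5 concentrations. 3) Linear interpolation between surrounding doses. 4) Unreached endpoint = highest concentration. Here, GI50 denotes the concentration required for 50% inhibition of growth.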 Activity calls are given as the source filed them. Rule as the data show it: active = GI50 up to about 1.1 µM and inactive = higher.

What was measured:
Test in all cases: DTP human tumour cell line panel, 48 h
[1] = system: U-251
[2] = system: M19-MEL
[3] = system: DMS-114
[4] = system: SF-295
[5] = system: XF498
[6] = system: M14
[7] = system: Malme-3M
[8] = system: LXFL 529
[9] = system: HCT-15
[10] = system: SNB-75
[11] = system: SK-MEL-28
[12] = system: NCI-H23
[13] = system: HT-29
[14] = system: RPMI-8226
[15] = system: 786-0
[16] = system: LOX IMVI
[17] = system: SN12C
[18] = system: OVCAR-4
[19] = system: NCI-H522
[20] = system: SNB-19
[21] = system: RXF 393
[22] = system: HOP-92
[23] = system: SF-268
[24] = system: SK-MEL-5
[25] = system: SR
[26] = system: K562
[27] = system: MOLT-4
[28] = system: SF-539
[29] = system: UACC-62
[30] = system: DMS-273
[31] = system: ACHN
[32] = system: A498
[33] = system: CCRF-CEM
[34] = system: IGROV-1
[35] = system: KM-20L2
[36] = system: HCC 2998
[37] = system: COLO 205
[38] = system: KM12
[39] = system: HL-60
[40] = system: HCT-116
[41] = system: DLD-1
[42] = system: OVCAR-3
[43] = system: CAKI-1
[44] = system: SK-MEL-2
[45] = system: UACC-257
[46] = system: SW-620
[47] = system: A549
[48] = system: RXF 631
[49] = system: HOP-62
[50] = system: HOP-18
[51] = system: SK-OV-3
[52] = system: SNB-78
[53] = system: EKVX
[54] = system: TK-10
[55] = system: NCI-H460
[56] = system: UO-31
[57] = system: OVCAR-8
[58] = system: OVCAR-5
[59] = system: NCI-H226

O=C1c2cnccc2Cc2cccc3c2N1c1ccccc1S3
GI50 [1]: 16.6 µM (inactive) | GI50 [2]: 28.9 µM (inactive) | GI50 [3]: 26.4 µM (inactive) | GI50 [4]: 28.2 µM (inactive) | GI50 [5]: 15.1 µM (inactive) | GI50 [6]: 24.3 µM (inactive) | GI50 [7]: 24.7 µM (inactive) | GI50 [8]: 27.5 µM (inactive) | GI50 [9]: 23.3 µM | GI50 [10]: 12.6 µM (inactive) | GI50 [11]: 26.1 µM (inactive) | GI50 [12]: 20.1 µM (inactive) | GI50 [13]: 23.9 µM (inactive) | GI50 [14]: 20.6 µM (inactive) | GI50 [15]: 28.1 µM (inactive) | GI50 [16]: 22.7 µM (inactive) | GI50 [17]: 29 µM (inactive) | GI50 [18]: 21.5 µM (inactive) | GI50 [19]: 12.5 µM (inactive) | GI50 [20]: 30.9 µM (inactive) | GI50 [21]: 21.6 µM (inactive) | GI50 [22]: 9.23 µM (inactive) | GI50 [23]: 29 µM (inactive) | GI50 [24]: 17.9 µM (inactive) | GI50 [25]: 12.4 µM (inactive) | GI50 [26]: 20.8 µM (inactive) | GI50 [27]: 28.3 µM (inactive) | GI50 [28]: 20.6 µM (inactive) | GI50 [29]: 18 µM (inactive) | GI50 [30]: 22.9 µM (inactive) | GI50 [31]: 19 µM (inactive) | GI50 [32]: 20.7 µM (inactive) | GI50 [33]: 27.5 µM (inactive) | GI50 [34]: 28 µM (inactive) | GI50 [35]: 17.6 µM (inactive) | GI50 [36]: 16.6 µM (inactive) | GI50 [37]: 27.4 µM (inactive) | GI50 [38]: 19.7 µM (inactive) | GI50 [39]: 21.1 µM (inactive) | GI50 [40]: 19 µM (inactive) | GI50 [41]: 29.2 µM (inactive) | GI50 [42]: 17.7 µM (inactive) | GI50 [43]: 2.88 µM (inactive) | GI50 [44]: 16.8 µM (inactive) | GI50 [45]: 23.3 µM (inactive) | GI50 [46]: 27.8 µM (inactive) | GI50 [47]: 23.6 µM (inactive) | GI50 [48]: 26.1 µM (inactive) | GI50 [49]: 20.9 µM (inactive)

CC(=O)Nc1ccc(/C=C/C(=O)c2sc(-n3nc(-c4ccccc4)cc3-c3ccccc3)nc2C)cc1
GI50 [1]: > 10 µM (inactive) | GI50 [2]: > 10 µM (inactive) | GI50 [3]: 74.8 µM (inactive) | GI50 [4]: > 10 µM (inactive) | GI50 [6]: > 10 µM (inactive) | GI50 [7]: > 10 µM (inactive) | GI50 [8]: > 10 µM (inactive) | GI50 [9]: > 10 µM | GI50 [10]: > 10 µM (inactive) | GI50 [11]: > 10 µM (inactive) | GI50 [12]: > 10 µM (inactive) | GI50 [13]: 84.7 µM (inactive) | GI50 [14]: > 10 µM (inactive) | GI50 [15]: > 10 µM (inactive) | GI50 [50]: > 10 µM (inactive) | GI50 [51]: > 10 µM (inactive) | GI50 [16]: > 10 µM (inactive) | GI50 [17]: > 10 µM (inactive) | GI50 [52]: > 10 µM (inactive) | GI50 [18]: 78.7 µM (inactive) | GI50 [53]: 8.99 µM (inactive) | GI50 [19]: 35.9 µM (inactive) | GI50 [20]: > 10 µM (inactive) | GI50 [21]: > 10 µM (inactive) | GI50 [54]: > 10 µM (inactive) | GI50 [22]: > 10 µM (inactive) | GI50 [23]: > 10 µM (inactive) | GI50 [24]: 95.3 µM (inactive) | GI50 [25]: > 10 µM (inactive) | GI50 [26]: > 10 µM (inactive) | GI50 [27]: > 10 µM (inactive) | GI50 [28]: > 10 µM (inactive) | GI50 [55]: > 10 µM (inactive) | GI50 [29]: > 10 µM (inactive) | GI50 [30]: > 10 µM (inactive) | GI50 [31]: > 10 µM (inactive) | GI50 [56]: > 10 µM (inactive) | GI50 [32]: > 10 µM (inactive) | GI50 [33]: > 10 µM (inactive) | GI50 [34]: > 10 µM (inactive) | GI50 [35]: > 10 µM (inactive) | GI50 [36]: > 10 µM (inactive) | GI50 [37]: > 10 µM (inactive) | GI50 [38]: 64.9 µM (inactive) | GI50 [39]: > 10 µM (inactive) | GI50 [40]: > 10 µM (inactive) | GI50 [41]: > 10 µM (inactive) | GI50 [42]: > 10 µM (inactive) | GI50 [57]: > 10 µM (inactive) | GI50 [43]: > 10 µM (inactive) | GI50 [58]: > 10 µM (inactive) | GI50 [44]: > 10 µM (inactive) | GI50 [45]: 80.9 µM (inactive) | GI50 [46]: > 10 µM (inactive) | GI50 [47]: > 10 µM (inactive) | GI50 [48]: > 10 µM (inactive) | GI50 [59]: > 10 µM (inactive) | GI50 [49]: > 10 µM (inactive)

NNC(=O)N/N=C1\CN(c2ccc(Cl)cc2Cl)C(=O)C(=O)C1c1nc2ccccc2o1 (stereo not given)
GI50 [1]: 54.8 µM (inactive) | GI50 [2]: > 100 µM (inactive) | GI50 [3]: > 100 µM (inactive) | GI50 [5]: > 100 µM (inactive) | GI50 [6]: > 100 µM (inactive) | GI50 [7]: > 100 µM (inactive) | GI50 [8]: > 100 µM (inactive) | GI50 [10]: > 100 µM (inactive) | GI50 [11]: > 100 µM (inactive) | GI50 [12]: 85.5 µM (inactive) | GI50 [13]: > 100 µM (inactive) | GI50 [14]: > 100 µM (inactive) | GI50 [15]: > 100 µM (inactive) | GI50 [51]: > 100 µM (inactive) | GI50 [17]: > 100 µM (inactive) | GI50 [52]: 39.1 µM (inactive) | GI50 [18]: > 100 µM (inactive) | GI50 [53]: > 100 µM (inactive) | GI50 [19]: > 100 µM (inactive) | GI50 [20]: > 100 µM (inactive) | GI50 [22]: > 100 µM (inactive) | GI50 [23]: > 100 µM (inactive) | GI50 [24]: > 100 µM (inactive) | GI50 [25]: > 100 µM (inactive) | GI50 [26]: > 100 µM (inactive) | GI50 [27]: > 100 µM (inactive) | GI50 [28]: > 100 µM (inactive) | GI50 [55]: > 100 µM (inactive) | GI50 [29]: > 100 µM (inactive) | GI50 [30]: > 100 µM (inactive) | GI50 [31]: > 100 µM (inactive) | GI50 [56]: 92.5 µM (inactive) | GI50 [32]: > 100 µM (inactive) | GI50 [33]: > 100 µM (inactive) | GI50 [34]: > 100 µM (inactive) | GI50 [35]: > 100 µM (inactive) | GI50 [36]: > 100 µM (inactive) | GI50 [37]: > 100 µM (inactive) | GI50 [38]: > 100 µM (inactive) | GI50 [40]: > 100 µM (inactive) | GI50 [41]: > 100 µM (inactive) | GI50 [42]: > 100 µM (inactive) | GI50 [57]: > 100 µM (inactive) | GI50 [43]: > 100 µM (inactive) | GI50 [58]: > 100 µM (inactive) | GI50 [44]: > 100 µM (inactive) | GI50 [45]: > 100 µM (inactive) | GI50 [46]: > 100 µM (inactive) | GI50 [47]: > 100 µM (inactive) | GI50 [48]: > 100 µM (inactive) | GI50 [59]: > 100 µM (inactive) | GI50 [49]: > 100 µM (inactive)

NC1CC(n2ccc(=O)[nH]c2=O)OC1C(O)CO (stereo not given)
GI50 [1]: > 100 µM (inactive) | GI50 [2]: > 100 µM (inactive) | GI50 [3]: > 100 µM (inactive) | GI50 [4]: > 100 µM (inactive) | GI50 [5]: > 100 µM (inactive) | GI50 [6]: > 100 µM (inactive) | GI50 [7]: > 100 µM (inactive) | GI50 [8]: > 100 µM (inactive) | GI50 [9]: > 100 µM | GI50 [10]: > 100 µM (inactive) | GI50 [11]: > 100 µM (inactive) | GI50 [12]: > 100 µM (inactive) | GI50 [13]: > 100 µM (inactive) | GI50 [14]: > 100 µM (inactive) | GI50 [15]: > 100 µM (inactive) | GI50 [50]: > 100 µM (inactive) | GI50 [51]: > 100 µM (inactive) | GI50 [16]: > 100 µM (inactive) | GI50 [17]: > 100 µM (inactive) | GI50 [18]: > 100 µM (inactive) | GI50 [53]: > 100 µM (inactive) | GI50 [19]: > 100 µM (inactive) | GI50 [20]: > 100 µM (inactive) | GI50 [21]: > 100 µM (inactive) | GI50 [54]: > 100 µM (inactive) | GI50 [22]: > 100 µM (inactive) | GI50 [23]: > 100 µM (inactive) | GI50 [24]: > 100 µM (inactive) | GI50 [25]: > 100 µM (inactive) | GI50 [26]: > 100 µM (inactive) | GI50 [27]: > 100 µM (inactive) | GI50 [28]: > 100 µM (inactive) | GI50 [55]: > 100 µM (inactive) | GI50 [29]: > 100 µM (inactive) | GI50 [30]: > 100 µM (inactive) | GI50 [31]: > 100 µM (inactive) | GI50 [56]: > 100 µM (inactive) | GI50 [33]: > 100 µM (inactive) | GI50 [34]: > 100 µM (inactive) | GI50 [35]: > 100 µM (inactive) | GI50 [36]: > 100 µM (inactive) | GI50 [37]: > 100 µM (inactive) | GI50 [38]: > 100 µM (inactive) | GI50 [39]: > 100 µM (inactive) | GI50 [40]: > 100 µM (inactive) | GI50 [41]: > 100 µM (inactive) | GI50 [42]: > 100 µM (inactive) | GI50 [57]: > 100 µM (inactive) | GI50 [58]: > 100 µM (inactive) | GI50 [44]: > 100 µM (inactive) | GI50 [45]: > 100 µM (inactive) | GI50 [46]: > 100 µM (inactive) | GI50 [47]: > 100 µM (inactive) | GI50 [48]: > 100 µM (inactive) | GI50 [59]: > 100 µM (inactive) | GI50 [49]: > 100 µM (inactive)
